Assay results as given in patent publication US20250145631A1, “HETEROCYCLIC COMPOUND ACTING ON G12D MUTANT KRAS PROTEIN” (Astellas Pharma Inc., priority 2022, published 2025).

Legend:
[1] = system: human KRAS G12D mutant-positive PK-59 pancreatic cancer cell line-derived xenograft; assay: Anti-tumor activity in PK-59 xenograft mice (Test Example 4); format: in vivo; details: 3 mg/kg into tail vein, once a week, twice in total; PK-59 xenograft nude mice
Method: PK-59 cells (RIKEN BioResearch Center, RCB1901) were cultured using RPMI 1640 medium containing 10% fetal bovine serum in the presence of 5% CO2 at 37° C. The PK-59 cells were collected and suspended in PBS, and after adding an equal amount of Matrigel (from Becton, Dickinson and Company), 4- to 5-week-old male nude mice (BALB/c-nu (nu/nu), from Charles River Laboratories Japan) were subcutaneously inoculated with the cell suspension of 1.0 to 2.0×10^7 cells/mL was subcutaneously inoculated in a volume of 100 μL per mouse. About two weeks after the inoculation, the mice were divided into groups so that all the groups had approximately the same tumor volume and body weight, and administration of test compounds was started on the next day. The study was conducted for 5 mice each of a vehicle group and test compound administration groups. The compounds were dissolved in a solvent containing ethanol (from FUJIFILM Wako Pure Chemical Corporation), a 5% glucose solution (from Otsuka Pharmaceutical), 1M hydrochloric acid (from Kanto Chemical Co., Inc.), 50% (2-hydroxypropyl)-P-cyclodextrin (HP-βCD) solution (from ROQUETTE), HCO-40 (from Nikko Chemicals Co., Ltd.) and 1M sodium hydroxide solution (from Kanto Chemical Co., Inc.) at a liquid amount ratio of 4:84.4:1.1:1:9:0.5. The test compounds dissolved in the respective solvents or the solvents were administered into tail vein. The administration was performed once a week and twice in total. The tumor sizes and the body weights were measured twice a week. The tumor volumes were calculated using the following equation.
[Tumor volume (mm^3)]=[Long diameter of tumor (mm)]×[Short diameter of tumor (mm)]^2×0.5
The tumor growth inhibition rate (%) by the test compounds were calculated with the tumor volumes of the test compound administration groups on the previous day of the start of the administration taken as 100% inhibition and the tumor volumes of the vehicle groups two weeks after the initial administration taken as 0% inhibition. In addition, when the tumor volume of a test compound administration group was smaller than the tumor volume on the previous day of the start of the administration, the tumor regression rate (%) by the test compound was calculated with the tumor volume on the previous day of the start of the administration taken as 0% regression and with the tumor volume 0 taken as 100% regression.

[2] = system: phosphorylation of ERK (Thr202/Tyr204); assay: ERK phosphorylation inhibitory effect by Cell ELISA in AsPC-1 cells (Test Example 2); format: cell-based; details: Homo sapiens, ASPC1, overnight treatment, Cell ELISA, read-out: IC50 (ERK phosphorylation inhibition)
In short: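 AsPC-1 cells (2.0×10^4/well, RPMI 1640 + 10% FBS) treated overnight with compounds (10 points, 10 μM to 0.3 nM final), then glyoxal-fixed and immunostained for phospho-ERK with IRDye 800CW secondary; 800-nm fluorescence read. IC50 by Sigmoid-Emax regression, normalized to DMSO (100%) and 1 μM trametinib (0%).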

IC50 [2] [nM] | Compound | Anti-Tumor Activity Two Weeks After Initial Administration (tumor regression rate) [1] [% regression]
21 | Cc1c(F)cc2[nH]ncc2c1-c1c(C2CC2)cc2c(N3C[C@@H]4C[C@H]3CN4)nc(OC3CCOCC3)nc2c1OCc1ccc(C(=O)N2CCN(Cc3ccc4c(c3)n(C)c(=O)n4C3CCC(=O)NC3=O)C[C@@H]2C)cc1 (stereo partly drawn) [Example 8, 3-(5-{[(3S)-4-{4-[({(7M)-6-cyclopropyl-4-[(1S,4S)-2,5-diazabicyclo[2.2.1]heptan-2-yl]-7-(6-fluoro-5-methyl-1H-indazol-4-yl)-2-[(oxan-4-yl)oxy]quinazolin-8-yl}oxy)methyl]benzoyl}-3-methylpiperazin-1-yl]methyl}-3-methyl-2-oxo-2,3-dihydro-TH-benzimidazol-1-yl)piperidine-2,6-dione] | 28
9 | CO[C@@H](C)COc1nc(N2C[C@@H]3C[C@H]2CN3)c2cc(C3CC3)c(-c3c(C)c(F)cc4[nH]ncc34)c(OCc3ccc(C(=O)N4CCN(Cc5ccc6c(c5)n(C)c(=O)n6C5CCC(=O)NC5=O)C[C@@H]4C)cc3)c2n1 (stereo partly drawn) [Example 10, 3-(5-{[(3S)-4-{4-[({(7M)-6-cyclopropyl-4-[(1S,4S)-2,5-diazabicyclo[2.2.1]heptan-2-yl]-7-(6-fluoro-5-methyl-1H-indazol-4-yl)-2-[(2S)-2-methoxypropoxy]quinazolin-8-yl}oxy)methyl]benzoyl}-3-methylpiperazin-1-yl]methyl}-3-methyl-2-oxo-2,3-dihydro-1H-benzimidazol-1-yl)piperidine-2,6-dione] | 28
16 | CO[C@@H](C)COc1cc(O[C@H]2CCNC2)c2cc(C3CC3)c(-c3c(C)c(F)cc4[nH]ncc34)c(OCc3ccc(C(=O)N4CCN(Cc5ccc6c(c5)n(C)c(=O)n6C5CCC(=O)NC5=O)C[C@@H]4C)cc3)c2n1 (stereo partly drawn) [Example 12, 3-[5-({(3S)-4-[4-({[6-cyclopropyl-7-(6-fluoro-5-methyl-1H-indazol-4-yl)-2-[(2S)-2-methoxypropoxy]-4-{[(3S)-pyrrolidin-3-yl]oxy}quinolin-8-yl]oxy}methyl)benzoyl]-3-methylpiperazin-1-yl}methyl)-3-methyl-2-oxo-2,3-dihydro-1H-benzimidazol-1-yl]piperidine-2,6-dione] | 35
24 | CO[C@@H](C)COc1cc(N2C[C@@H]3C[C@H]2CN3)c2cc(C3CC3)c(-c3c(C)c(F)cc4[nH]ncc34)c(OCc3ccc(C(=O)N4CCN(Cc5ccc6c(c5)n(C)c(=O)n6C5CCC(=O)NC5=O)C[C@@H]4C)cc3)c2n1 (stereo partly drawn) [Example 29, 3-(5-{[(3S)-4-{4-[({6-cyclopropyl-4-[(1S,4S)-2,5-diazabicyclo[2.2.1]heptan-2-yl]-7-(6-fluoro-5-methyl-1H-indazol-4-yl)-2-[(2S)-2-methoxypropoxy]quinolin-8-yl}oxy)methyl]benzoyl}-3-methylpiperazin-1-yl]methyl}-3-methyl-2-oxo-2,3-dihydro-1H-benzimidazol-1-yl)piperidine-2,6-dione] | 5
